Source: the OligoGym collection
HELM strings list units from the 5' end as sugar, base in round brackets, then linkage (d deoxyribose, r ribose, m 2'-O-methyl, p phosphodiester). [sp] = phosphorothioate linkage

What was measured:
[1] = molecular target: CDKN2B-AS1; experiment: HEK293-TLR7, 100 nM ASO, then resiquimod
[2] = molecular target: CDKN2B-AS1; experiment: HEK293-TLR8, 100 nM ASO, then resiquimod

Substance	TLR7 signal (NF-kB luciferase) (% of resiquimod alone) [1]	TLR8 potentiation (NF-kB luciferase) (fold of resiquimod alone) [2]
RNA1{m(A)[sp].m(G)[sp].m(G)[sp].m(A)[sp].m(U)[sp].d(T)[sp].d(A)[sp].d(A)[sp].d(A)[sp].d(A)[sp].d(C)[sp].d(A)[sp].d(G)[sp].d(A)[sp].d(T)[sp].m(U)[sp].m(A)[sp].m(A)[sp].m(U)[sp].m(A)}$$$$	36.3	2.19
RNA1{m(A)[sp].m(U)[sp].m(U)[sp].m(U)[sp].m(C)[sp].d(C)[sp].d(A)[sp].d(C)[sp].d(A)[sp].d(T)[sp].d(G)[sp].d(C)[sp].d(C)[sp].d(C)[sp].d(A)[sp].m(G)[sp].m(U)[sp].m(G)[sp].m(U)[sp].m(U)}$$$$	32	2.06
RNA1{m(G)[sp].m(A)[sp].m(G)[sp].m(U)[sp].m(U)[sp].d(C)[sp].d(T)[sp].d(T)[sp].d(C)[sp].d(G)[sp].d(T)[sp].d(A)[sp].d(G)[sp].d(G)[sp].d(C)[sp].m(U)[sp].m(U)[sp].m(C)[sp].m(U)[sp].m(G)}$$$$	25.9	0.96
RNA1{m(G)[sp].m(U)[sp].m(G)[sp].m(U)[sp].m(U)[sp].d(T)[sp].d(T)[sp].d(T)[sp].d(A)[sp].d(A)[sp].d(T)[sp].d(T)[sp].d(T)[sp].d(T)[sp].d(G)[sp].m(U)[sp].m(A)[sp].m(G)[sp].m(A)[sp].m(G)}$$$$	23.6	1.31
RNA1{m(G)[sp].m(C)[sp].m(A)[sp].m(G)[sp].m(U)[sp].d(C)[sp].d(T)[sp].d(C)[sp].d(C)[sp].d(A)[sp].d(T)[sp].d(G)[sp].d(T)[sp].d(C)[sp].d(C)[sp].m(C)[sp].m(A)[sp].m(G)[sp].m(G)[sp].m(C)}$$$$	20.3	1.79
RNA1{m(G)[sp].m(A)[sp].m(U)[sp].m(U)[sp].m(A)[sp].d(A)[sp].d(A)[sp].d(A)[sp].d(C)[sp].d(A)[sp].d(G)[sp].d(A)[sp].d(T)[sp].d(T)[sp].d(A)[sp].m(A)[sp].m(U)[sp].m(A)[sp].m(C)[sp].m(A)}$$$$	21.9	0.73
RNA1{m(C)[sp].m(C)[sp].m(A)[sp].m(U)[sp].m(G)[sp].d(T)[sp].d(C)[sp].d(C)[sp].d(C)[sp].d(A)[sp].d(G)[sp].d(G)[sp].d(C)[sp].d(C)[sp].d(T)[sp].m(C)[sp].m(C)[sp].m(A)[sp].m(G)[sp].m(U)}$$$$	41.4	1.24
RNA1{m(A)[sp].m(A)[sp].m(A)[sp].m(G)[sp].m(A)[sp].d(T)[sp].d(T)[sp].d(A)[sp].d(T)[sp].d(C)[sp].d(T)[sp].d(T)[sp].d(C)[sp].d(T)[sp].d(T)[sp].m(U)[sp].m(U)[sp].m(A)[sp].m(A)[sp].m(U)}$$$$	49.3	2.96
RNA1{m(G)[sp].m(U)[sp].m(G)[sp].m(U)[sp].m(C)[sp].d(C)[sp].d(T)[sp].d(T)[sp].d(C)[sp].d(A)[sp].d(T)[sp].d(G)[sp].d(C)[sp].d(T)[sp].d(T)[sp].m(U)[sp].m(G)[sp].m(G)[sp].m(A)[sp].m(U)}$$$$	18.1	1.33
RNA1{m(U)[sp].m(A)[sp].m(A)[sp].m(A)[sp].m(A)[sp].d(T)[sp].d(A)[sp].d(A)[sp].d(G)[sp].d(G)[sp].d(G)[sp].d(G)[sp].d(A)[sp].d(A)[sp].d(T)[sp].m(A)[sp].m(G)[sp].m(G)[sp].m(G)[sp].m(G)}$$$$	41	1.28
RNA1{m(C)[sp].m(C)[sp].m(U)[sp].m(A)[sp].m(G)[sp].d(A)[sp].d(A)[sp].d(A)[sp].d(G)[sp].d(A)[sp].d(A)[sp].d(G)[sp].d(C)[sp].d(A)[sp].d(A)[sp].m(A)[sp].m(G)[sp].m(A)[sp].m(U)[sp].m(U)}$$$$	57.2	3.58
RNA1{m(G)[sp].m(U)[sp].m(C)[sp].m(C)[sp].m(C)[sp].d(A)[sp].d(G)[sp].d(G)[sp].d(C)[sp].d(C)[sp].d(T)[sp].d(C)[sp].d(C)[sp].d(A)[sp].d(G)[sp].m(U)[sp].m(G)[sp].m(U)[sp].m(C)[sp].m(U)}$$$$	19	1.05
RNA1{m(G)[sp].m(U)[sp].m(G)[sp].m(G)[sp].m(U)[sp].d(T)[sp].d(A)[sp].d(A)[sp].d(G)[sp].d(T)[sp].d(A)[sp].d(C)[sp].d(A)[sp].d(T)[sp].d(G)[sp].m(A)[sp].m(G)[sp].m(C)[sp].m(U)[sp].m(C)}$$$$	21.6	0.59
RNA1{m(A)[sp].m(G)[sp].m(U)[sp].m(C)[sp].m(U)[sp].d(C)[sp].d(C)[sp].d(A)[sp].d(T)[sp].d(G)[sp].d(T)[sp].d(C)[sp].d(C)[sp].d(C)[sp].d(A)[sp].m(G)[sp].m(G)[sp].m(C)[sp].m(C)[sp].m(U)}$$$$	35.8	1.64
RNA1{m(G)[sp].m(G)[sp].m(U)[sp].m(G)[sp].m(G)[sp].d(C)[sp].d(C)[sp].d(A)[sp].d(C)[sp].d(A)[sp].d(G)[sp].d(G)[sp].d(C)[sp].d(A)[sp].d(A)[sp].m(C)[sp].m(G)[sp].m(U)[sp].m(C)[sp].m(A)}$$$$	39.1	0.8
RNA1{m(C)[sp].m(U)[sp].m(U)[sp].m(C)[sp].m(A)[sp].d(C)[sp].d(A)[sp].d(T)[sp].d(C)[sp].d(C)[sp].d(A)[sp].d(A)[sp].d(G)[sp].d(A)[sp].d(C)[sp].m(A)[sp].m(G)[sp].m(C)[sp].m(A)[sp].m(A)}$$$$	55	2.26
RNA1{m(G)[sp].m(A)[sp].m(A)[sp].m(A)[sp].m(A)[sp].d(G)[sp].d(A)[sp].d(T)[sp].d(T)[sp].d(A)[sp].d(T)[sp].d(C)[sp].d(T)[sp].d(T)[sp].d(C)[sp].m(U)[sp].m(U)[sp].m(U)[sp].m(U)[sp].m(A)}$$$$	34.4	1.31
RNA1{m(A)[sp].m(A)[sp].m(A)[sp].m(A)[sp].m(U)[sp].d(A)[sp].d(A)[sp].d(G)[sp].d(G)[sp].d(G)[sp].d(G)[sp].d(A)[sp].d(A)[sp].d(T)[sp].d(A)[sp].m(G)[sp].m(G)[sp].m(G)[sp].m(G)[sp].m(A)}$$$$	68.5	0.86
RNA1{m(A)[sp].m(G)[sp].m(A)[sp].m(A)[sp].m(A)[sp].d(G)[sp].d(A)[sp].d(A)[sp].d(G)[sp].d(C)[sp].d(A)[sp].d(A)[sp].d(A)[sp].d(G)[sp].d(A)[sp].m(U)[sp].m(U)[sp].m(C)[sp].m(A)[sp].m(A)}$$$$	43	1.96
RNA1{m(A)[sp].m(G)[sp].m(G)[sp].m(C)[sp].m(C)[sp].d(T)[sp].d(C)[sp].d(C)[sp].d(A)[sp].d(G)[sp].d(T)[sp].d(G)[sp].d(T)[sp].d(C)[sp].d(T)[sp].m(U)[sp].m(C)[sp].m(U)[sp].m(C)[sp].m(C)}$$$$	44.7	2.19
RNA1{m(A)[sp].m(G)[sp].m(C)[sp].m(A)[sp].m(G)[sp].d(T)[sp].d(C)[sp].d(T)[sp].d(C)[sp].d(C)[sp].d(A)[sp].d(T)[sp].d(G)[sp].d(T)[sp].d(C)[sp].m(C)[sp].m(C)[sp].m(A)[sp].m(G)[sp].m(G)}$$$$	25.5	2.81
RNA1{m(A)[sp].m(G)[sp].m(U)[sp].m(G)[sp].m(G)[sp].d(C)[sp].d(A)[sp].d(C)[sp].d(A)[sp].d(T)[sp].d(A)[sp].d(C)[sp].d(C)[sp].d(A)[sp].d(C)[sp].m(A)[sp].m(C)[sp].m(C)[sp].m(C)[sp].m(U)}$$$$	42	2.24
RNA1{m(U)[sp].m(A)[sp].m(U)[sp].m(U)[sp].m(U)[sp].d(C)[sp].d(C)[sp].d(A)[sp].d(C)[sp].d(A)[sp].d(T)[sp].d(G)[sp].d(C)[sp].d(C)[sp].d(C)[sp].m(A)[sp].m(G)[sp].m(U)[sp].m(G)[sp].m(U)}$$$$	30.5	2.77
RNA1{m(C)[sp].m(U)[sp].m(C)[sp].m(U)[sp].m(C)[sp].d(T)[sp].d(T)[sp].d(T)[sp].d(C)[sp].d(T)[sp].d(G)[sp].d(T)[sp].d(G)[sp].d(G)[sp].d(T)[sp].m(U)[sp].m(U)[sp].m(C)[sp].m(U)[sp].m(C)}$$$$	92.3	3.82
RNA1{m(A)[sp].m(U)[sp].m(A)[sp].m(U)[sp].m(C)[sp].d(T)[sp].d(G)[sp].d(C)[sp].d(T)[sp].d(G)[sp].d(C)[sp].d(C)[sp].d(C)[sp].d(A)[sp].d(C)[sp].m(C)[sp].m(U)[sp].m(U)[sp].m(C)[sp].m(U)}$$$$	47.5	2.55
RNA1{m(G)[sp].m(G)[sp].m(A)[sp].m(U)[sp].m(U)[sp].d(A)[sp].d(A)[sp].d(A)[sp].d(A)[sp].d(C)[sp].d(A)[sp].d(G)[sp].d(A)[sp].d(T)[sp].d(T)[sp].m(A)[sp].m(A)[sp].m(U)[sp].m(A)[sp].m(C)}$$$$	27.2	1.16
RNA1{m(U)[sp].m(U)[sp].m(A)[sp].m(A)[sp].m(A)[sp].d(T)[sp].d(A)[sp].d(A)[sp].d(T)[sp].d(C)[sp].d(T)[sp].d(A)[sp].d(G)[sp].d(T)[sp].d(T)[sp].m(U)[sp].m(G)[sp].m(A)[sp].m(A)[sp].m(G)}$$$$	25.7	3.96
